Here are results for one molecule from patent publication US5962487A, “Antipicornaviral compounds and methods for their use and preparation” (Agouron Pharmaceuticals, Inc., priority 1997, dated 1999).

Data set [1] deals with T1, Rhinovirus 3C protease (RVP) serotype 2 (Human rhinovirus 2, UniProt P04936).
T1 construct: Recombinant Rhinovirus 3C proteases from serotypes 14, 16, 2 or 89 were prepared; made in house
The data set is described as follows: Inhibition of Rhinovirus Protease, serotype 2 (FRET assay). In kind it is biochemical. The conditions noted are these: enzyme start experiments, read-out: kobs/I. As to the method:
(§1) Stock solutions (50 mM, in DMSO) of various compounds were prepared; dilutions were in the same solvent. Recombinant Rhinovirus 3C proteases from serotypes 14, 16, 2 or 89 were prepared by the following standard chromatographic procedures: (1) ion exchange using Q Sepharose Fast Flow from Pharmacia; (2) affinity chromatography using Affi-Gel Blue from Biorad; and (3) sizing using Sephadex G-100 from Pharmacia. Assays contained 2% DMSO, 50 mM tris pH 7.6, 1 mM EDTA, a compound at the indicated concentrations, approximately 1 μM substrate, and 50-100 nM protease. For Ki determinations, the compound and the enzyme were preincubated for 10 minutes at 30° C. prior to addition of the substrate (substrate start). The kobs/I values were obtained from reactions initiated by addition of enzyme rather than substrate. RVP activity is measured in the fluorescence resonance energy transfer assay. The substrate was (N-terminal) DABCYL-(Gly-Arg-Ala-Val-Phe-Gln-Gly-Pro-Val-Gly)-EDANS. In the uncleaved peptide, the EDANS fluorescence was quenched by the proximal DABCYL moiety. When the peptide was cleaved, the quenching was relieved, and activity was measured as an increase in fluorescence signal.
(§2) In the above table, all data is for RVP serotype-14 unless otherwise noted in parentheses. All strains of human rhinovirus (HRV) were purchased from American Type Culture Collection (ATCC), except for serotype 14, which was produced from the infectious cDNA clone constructed and supplied to us by Dr. Roland Rueckert at the Institute for Molecular Virology, University of Wisconsin, Madison, Wis. The column designated INHIB represents the percent inhibition, with the concentration of the compound in μM indicated in parentheses, unless Ki was assigned as designated by (Ki), at 10 minute preincubation with 50 nM RVP prior to addition of substrate was used. The data in the column designated kobs/I was measured from progress curves in enzyme start experiments.

Data set [2] is described as follows: in vitro. In kind it is cell-based. The conditions noted are these: human, hi-hela cells. The procedure, abridged:
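HI-HeLa cells infected with HRV-14 at m.o.i. 0.13 or mock-infected, incubated with compounds for two days; XTT/PMS formazan read at 450/650 nm. EC50 as concentration restoring formazan to 50% of mock-infected level; CC50 from mock-infected cells; TI = CC50/EC50.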

Another data set concerns ECHO-11. Description: Echovirus-11 MRC5 Cell Culture Assay. Format: cell-based, Echovirus strain 11. The method, then: The Echovirus strain 11 (ECHO-11) and Enterovirus strain 70 (ENT-70) were purchased from American Type Culture Collection (ATCC). Virus stocks were propagated and antiviral assays were performed in MRC5 cells (ATCC). Cells were grown in Minimal Essential Medium with 10% fetal bovine serum.
(§3) The ability of compounds to protect cells against ECHO-11 or ENT-70 infection was measured by the XTT dye reduction method. Briefly, MRC5 cells were infected with ECHO-11 or ENT-70 at a multiplicity of infection (m.o.i.) of 0.0013 (ECHO-11) and 0.0017 (ENT-70) or mock-infected with medium only. Infected or uninfected cells were resuspended at 2×10^4 cells per mL and incubated with appropriate concentrations of drug. One day later, XTT/PMS was added to test plates, and the amount of formazan produced was quantified spectrophotometrically at 450/650 nm. The EC50 was calculated as the concentration of drug that increased the percentage of formazan production in drug-treated, virus-infected cells to 50% of that produced by drug-free, uninfected cells. The 50% cytotoxic dose (CC50) was calculated as the concentration of drug that decreased the percentage of formazan produced in drug-treated, uninfected cells to 50% of that produced in drug-free, uninfected cells. The therapeutic index (TI) was calculated by dividing the CC50 by the EC50.

Data set [3] concerns the target T2, Rhinovirus 3C protease (RVP) serotype 16 (Human rhinovirus 16, UniProt Q82122).
T2 construct: Recombinant Rhinovirus 3C proteases from serotypes 14, 16, 2 or 89 were prepared; made in house
Description: Inhibition of Rhinovirus Protease, serotype 16 (FRET assay). Format: biochemical. The conditions noted are these: enzyme start experiments, read-out: kobs/I. The method, then:
as §1, §2

In the next data set the test system is CVB-3. The data set is described as follows: Anticoxsackieviral HI-HeLa Cell Culture Assay, CVB-3. In kind it is cell-based, Coxsackie strain B-3. As to the method:
as §3, with “CVA-21” for “ECHO-11”, “CVB-3” for “ENT-70”, “HI-HeLa” for “MRC5”, “0.05 (CVA-21)” for “0.0013 (ECHO-11)”, “0.08 (CVB-3)” for “0.0017 (ENT-70)”, “4×10^4” for “2×10^4”
(§4) The Coxsackie strains A-21 (CVA-21) and B-3 (CVB-3) were purchased from American Type Culture Collection (ATCC). Virus stocks were propagated and antiviral assays were performed in HI-HeLa cells (ATCC). Cells were grown in Minimal Essential Medium with 10% fetal bovine serum.

Data set [4] is described as follows: in vitro. Format: cell-based. The conditions noted are these: human, hi-hela cells. The method, then:
as §3, with “CVA-21” for “ECHO-11”, “CVB-3” for “ENT-70”, “HI-HeLa” for “MRC5”, “0.05 (CVA-21)” for “0.0013 (ECHO-11)”, “0.08 (CVB-3)” for “0.0017 (ENT-70)”, “4×10^4” for “2×10^4”
as §4
The source holds these as a separate data set.

The subject of a further data set is CVA-21. The data set is described as follows: Anticoxsackieviral HI-HeLa Cell Culture Assay, CVA-21. Format: cell-based, Coxsackie strain A-21. As to the method:
as §3, with “CVA-21” for “ECHO-11”, “CVB-3” for “ENT-70”, “HI-HeLa” for “MRC5”, “0.05 (CVA-21)” for “0.0013 (ECHO-11)”, “0.08 (CVB-3)” for “0.0017 (ENT-70)”, “4×10^4” for “2×10^4”
as §4

T2 sequence (Q82122 1511-1693): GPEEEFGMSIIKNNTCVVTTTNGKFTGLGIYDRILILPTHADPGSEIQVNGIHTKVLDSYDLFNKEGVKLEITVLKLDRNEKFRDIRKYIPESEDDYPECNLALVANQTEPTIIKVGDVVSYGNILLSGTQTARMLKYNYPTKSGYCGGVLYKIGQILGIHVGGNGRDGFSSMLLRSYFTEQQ
T1 sequence (P04936 1508-1690): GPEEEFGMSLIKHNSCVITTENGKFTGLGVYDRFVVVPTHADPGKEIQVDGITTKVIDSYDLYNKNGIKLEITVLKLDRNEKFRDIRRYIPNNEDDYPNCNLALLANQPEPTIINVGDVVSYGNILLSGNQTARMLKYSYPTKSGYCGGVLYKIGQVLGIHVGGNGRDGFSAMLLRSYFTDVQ

With `CCOC(=O)/C=C/[C@H](CCC(N)=O)NC(=O)[C@H](Cc1ccccc1)N(C)C(=O)[C@H](CC(C)C)NC(=O)OCc1ccccc1` [Compound 2, Ethyl-3-(CBZ-L-Leu-L-N-Me-Phe-L-Gln)-E-Propenoate], the results for the kinact/KI in data set [1] and in data set [3] were 617 M⁻¹ s⁻¹ and 1040 M⁻¹ s⁻¹, respectively. Further, the half-maximal cytotoxic concentration (CC50) at 48 h in the data set “in vitro [2]” was 56 µM. Further, the TI with ECHO-11 (CC50/EC50, ECHO-11, 1440 min) came to 18; with CVB-3 (CC50/EC50, CVB-3), 28; in the data set on CVA-21 (CC50/EC50, CVA-21), 17. Moreover, the EC50 with ECHO-11 (Echovirus, 24 h, ECHO-11 infection of MRC5 cells, XTT, one day) was 3.1 µM; in the data set on CVB-3 (24 h, CVB-3 infection of Hi-HeLa cells, XTT, one day), 2 µM; in the data set with CVA-21 (24 h, CVA-21 infection of Hi-HeLa cells, XTT, one day), 3.3 µM. Also, in the data set “in vitro [4]”, it took 56 µM to reach half-maximal cytotoxicity (CC50 at 24 h).

As usually defined, the CC50 is the concentration at which the toxic effect on the cells reaches its halfway point. Read a low CC50 as harm at low concentration. The term EC50 denotes the midpoint of the concentration-response curve. A higher EC50 goes with a need for much substance.
